The values below come from patent publication US12018021B2 (UCB Biopharma SRL, priority 2018, dated 2024).

Molecules are shown by their SMILES. Where a name gives a salt, the structure may show the parent alone.

Assay [1] concerns the target IgE-Tb / FcεRIα-Y131A-AF488 (Homo sapiens, UniProt P01854). The assay is described as follows: IgE-Tb / FcεRIα-Y131A-AF488 FRET assay (protocol for examples 1 to 233). It is filed as binding. The settings on record: examples 1 to 233: 5 nM IgE-Tb, 25 nM FcεRIα-Y131A-AF488, incubated 2 hours at room temperature; read-out: Y131A FRET IC50 range. The protocol:
For examples 1 to 233, the assay was conducted according to the following: Each assay reaction was conducted in a volume of 25 μl in a 384-well half-volume plate. 10 point compound serial dilutions (3-fold) were generated in DMSO at a concentration of ×50 that of the final assay concentration (FAC). Compound solutions were then prepared by IgE-Tb diluting 10-fold in assay buffer. For the assay, 5 μl of diluted compound was added to 10 μl of, followed by addition of 10 μl FcεRIα-Y131A-AF488. FRET reagents FACs were 5 nM IgE-Tb, 25 nM FcεRIα-Y131A-AF488. Usually the top FAC of compound in the assay was 10 μM. The final DMSO concentration was 2%. The minimum signal (MIN) was measured by adding 5l unlabelled FcεRIα at 1 μM (FAC=200 nM) to the FRET reagents. The maximum FRET signal (MAX) was measured in wells containing FRET reagents but no compound. The assay was incubated for 2 hours at room temperature, protected from light and evaporation, and with gentle agitation.
Measurement of FRET for each well was carried out by exciting at 330 nm and measuring emission at 495/520 nm using an Envision plate reader (Perkin Elmer). FRET ratio was calculated as follows: Emission at 520/Emission at 495×1000.
The FRET ratio was used for the data analysis.
Z′ was calculated as follows (σ=standard deviation and μ=mean): 1−((3×σMAX)+(3×σMIN))/(μMAX−μMIN)
Z′ above 0.5 was considered a good assay.
Background signal (MIN) was subtracted from all wells. Using the background subtracted values, the percent inhibition by compound in each test-well was calculated as follows: 100−Test-well FRET ratio/MAX FRET ratio×100.
Percent inhibition was plotted against compound concentration. IC50 values for each compound were determined using four parameter logistic fit model using the XLFIT5 software package.

Assay [2] deals with IgE-Tb / sFcεRIα-Y131A-AF488 (Homo sapiens, UniProt P01854, N146Q/N252Q). The assay is described as follows: IgE-Tb / sFcεRIα-Y131A-AF488 FRET assay (protocol for examples 234 to 501). It is filed as binding. The settings on record: examples 234 to 501: compound with IgE-Tb 30 minutes before sFcεRIα-Y131A-AF488, incubated 18 hours at room temperature; read-out: Y131A FRET IC50 range. In a few lines: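 Read-out is the 520/490 nm emission ratio (337 nm excitation) after 18 h at room temperature, background subtracted, fitted four-parameter for IC50. Final reagents: 5 nM IgE-Tb, preincubated 30 min with compound (top typically 10 μM, 2% DMSO, 3-fold 10-point), plus 25 nM sFcεRIα-Y131A-AF488.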
Sequence of IgE-Tb / sFcεRIα-Y131A-AF488 (P01854 whole entry N146Q/N252Q): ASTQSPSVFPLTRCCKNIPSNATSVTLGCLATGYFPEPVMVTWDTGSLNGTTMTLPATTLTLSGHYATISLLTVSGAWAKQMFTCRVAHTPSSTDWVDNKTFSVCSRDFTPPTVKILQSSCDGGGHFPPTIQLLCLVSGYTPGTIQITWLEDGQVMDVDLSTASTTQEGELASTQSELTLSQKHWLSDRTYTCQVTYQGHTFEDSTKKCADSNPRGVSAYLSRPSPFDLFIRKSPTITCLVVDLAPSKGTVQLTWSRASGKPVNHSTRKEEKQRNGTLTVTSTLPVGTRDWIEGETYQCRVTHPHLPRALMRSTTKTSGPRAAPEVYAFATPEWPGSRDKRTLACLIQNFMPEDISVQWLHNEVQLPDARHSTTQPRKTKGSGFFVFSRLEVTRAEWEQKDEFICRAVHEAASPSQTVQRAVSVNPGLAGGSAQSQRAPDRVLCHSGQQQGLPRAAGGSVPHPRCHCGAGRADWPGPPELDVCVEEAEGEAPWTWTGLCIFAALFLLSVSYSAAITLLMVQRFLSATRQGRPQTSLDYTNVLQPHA

Sequence of IgE-Tb / FcεRIα-Y131A-AF488 (P01854 1-427 limits assumed, stated change not applied): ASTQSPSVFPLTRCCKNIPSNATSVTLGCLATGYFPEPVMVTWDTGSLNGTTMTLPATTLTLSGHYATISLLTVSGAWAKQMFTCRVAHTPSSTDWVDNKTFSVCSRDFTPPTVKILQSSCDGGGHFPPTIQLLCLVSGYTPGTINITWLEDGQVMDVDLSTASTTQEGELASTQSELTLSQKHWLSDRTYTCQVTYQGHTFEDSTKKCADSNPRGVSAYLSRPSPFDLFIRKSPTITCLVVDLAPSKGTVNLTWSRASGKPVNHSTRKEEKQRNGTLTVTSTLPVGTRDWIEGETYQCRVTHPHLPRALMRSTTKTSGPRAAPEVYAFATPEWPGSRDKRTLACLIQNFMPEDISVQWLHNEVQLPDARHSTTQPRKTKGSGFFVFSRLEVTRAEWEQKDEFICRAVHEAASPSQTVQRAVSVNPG

On to `CNC(=O)c1c(NC(=O)C2CC2C)sc2c1CCCC2` (mixture of isomers) [Example 102, N-Methyl-2-[(2-methylcyclopropanecarbonyl)amino]-4,5,6,7-tetrahydrobenzothiophene-3-carboxamide], for which the IC50 in assay [1] lay within 10000 to 50000 nM.

For the compound `C[S+]([O-])NC1CCc2sc(NC(=O)C3CC3)c(C(=O)NCC3CC3)c2C1` (mixture of isomers) [Example 199, 2-(Cyclopropanecarbonylamino)-N-(cyclopropylmethyl)-5-(methanesulfinamido)-4,5,6,7-tetrahydrobenzothiophene-3-carboxamide], the IC50 in assay [1] was in the range of 1000 to 10000 nM.

Regarding `C[C@@H]1CCc2sc(NC(=O)C3CC3)c(C(=O)NCC3CC3)c21` (single isomer, unassigned) [Example 13], the IC50 in assay [1] is 1000 to 10000 nM.

As to `C[C@H]1CCc2sc(NC(=O)C3CC3)c(C(=O)NCC3CC3)c21` (single isomer, unassigned) [Example 14], the IC50 in assay [1] fell in the range of 10000 to 50000 nM.

With `CC1CC1C(=O)Nc1sc2c(c1C(=O)NCC1CC1)CCCC2` (single isomer, unassigned) [Example 90, N-(cyclopropylmethyl)-2-[(2-methylcyclopropanecarbonyl)amino]-4,5,6,7-tetrahydrobenzothiophene-3-carboxamide], the IC50 in assay [1] was 1000 to 10000 nM.

Take `O=C(Nc1sc2c(c1C(=O)N1CCC3(CC3)C1)CC(n1cnnc1Nc1cccnc1)CC2)C1CC1` (single isomer, unassigned) [Example 128]: the IC50 in assay [1] was less than 1000 nM.

Turning to `O=C(Nc1sc2c(c1C(=O)N1CCC3(CC3)C1)CC(n1cnnc1Nc1cccnc1)CC2)C1CC1` (single isomer, unassigned) [Example 129], the IC50 in assay [1] lay within 1000 to 10000 nM.

Consider `CCc1c(N[C@@H]2CCc3sc(NC(=O)C4CC4)c(C(=O)NCC4CC4)c3C2)c(=O)c1=O` (single isomer, unassigned) [Example 189], for which, in assay [1], the IC50 is less than 1000 nM.

Regarding `CCc1c(N[C@H]2CCc3sc(NC(=O)C4CC4)c(C(=O)NCC4CC4)c3C2)c(=O)c1=O` (single isomer, unassigned) [Example 190], the IC50 in assay [1] is less than 1000 nM.

As for `CC(C)(C)CNc1nncn1C1CCc2sc(NC(=O)C3CC3)c(C(=O)NCC3CC3)c2C1` (stereo in doubt) [Example 105, (5S)-2-(Cyclopropanecarbonylamino)-N-(cyclopropylmethyl)-5-[3-(2,2-dimethylpropylamino)-1,2,4-triazol-4-yl]-4,5,6,7-tetrahydrobenzothiophene-3-carboxamide], in assay [1], the IC50 is less than 1000 nM.

`CC(C)CNc1nncn1C1CCc2sc(NC(=O)C3CC3)c(C(=O)NCC3CC3)c2C1` (stereo in doubt) [Example 111, (5S)-2-(Cyclopropanecarbonylamino)-N-(cyclopropylmethyl)-5-[3-(isobutylamino)-1,2,4-triazol-4-yl]-4,5,6,7-tetrahydrobenzothiophene-3-carboxamide]: the IC50 in assay [1] is less than 1000 nM.

In the case of `Cc1cncc(Nc2nncn2C2CCc3sc(NC(=O)C4CC4)c(C(=O)NCC4CC4)c3C2)c1` (stereo in doubt) [Example 114, (5S)-2-(cyclopropanecarbonylamino)-N-(cyclopropylmethyl)-5-[3-[(5-methyl-3-pyridyl)amino]-1,2,4-triazol-4-yl]-4,5,6,7-tetrahydrobenzothiophene-3-carboxamide], the IC50 in assay [1] is less than 1000 nM.

On to `O=C(NCC1CC1)c1c(NC(=O)C2CC2)sc2c1CC(n1cnnc1NCCN1CCOCC1)CC2` (stereo in doubt) [Example 118, (5S)-2-(Cyclopropanecarbonylamino)-N-(cyclopropylmethyl)-5-[3-(2-morpholinoethylamino)-1,2,4-triazol-4-yl]-4,5,6,7-tetrahydrobenzothiophene-3-carboxamide], for which, in assay [1], the IC50 was less than 1000 nM.

In the case of `CC(C)(C)OC(=O)Nc1cnnn1[C@H]1CCc2sc(NC(=O)C3CC3)c(C(=O)NCC3CC3)c2C1` (stereo in doubt) [Example 140, tert-Butyl N-[3-[2-(cyclopropanecarbonylamino)-3-(cyclopropylmethylcarbamoyl)-4,5,6,7-tetrahydrobenzothiophen-5-yl]triazol-4-yl]carbamate], the IC50 in assay [1] is less than 1000 nM.

As to `Cc1cnc(Nc2nncn2C2CCc3sc(NC(=O)C4CC4)c(C(=O)NCC4CC4)c3C2)c(C)n1` (stereo in doubt) [Example 178, (5S)-2-(Cyclopropanecarbonylamino)-N-(cyclopropylmethyl)-5-[3-[(3,5-dimethylpyrazin-2-yl)amino]-1,2,4-triazol-4-yl]-4,5,6,7-tetrahydrobenzothiophene-3-carboxamide], in assay [1], the IC50 is less than 1000 nM.

Turning to `CNC(=O)c1c(NC(=O)C2CC2)sc2c1CCSC2` [Example 1, 2-(Cyclopropanecarbonylamino)-N-methyl-5,7-dihydro-4H-thieno[2,3-c]thiopyran-3-carboxamide], the IC50 in assay [1] is 1000 to 10000 nM.

Regarding `CNC(=O)c1c(NC(=O)C2CC2)sc2c1CCCO2` [Example 2, 6-(Cyclopropanecarbonylamino)-N-methyl-3,4-dihydro-2H-thieno[2,3-b]pyran-5-carboxamide], the IC50 in assay [1] fell in the range of 10000 to 50000 nM.

On to `O=C(NCC1CC1)c1c(NC(=O)C2CC2)sc2c1CNCC2` [Example 3, 2-(Cyclopropanecarbonylamino)-N-(cyclopropylmethyl)-4,5,6,7-tetrahydrothieno[3,2-c]pyridine-3-carboxamide; hydrochloride], for which, in assay [1], the IC50 lay within 10000 to 50000 nM.

`Cn1nc(OC(F)F)cc1Nc1nncn1[C@H]1CCc2sc(NC(=O)C3CC(F)(F)C3)c(C(=O)NC[C@H]3C[C@H]3F)c2C1` [Example 491, (5S)-2-[(3,3-difluorocyclobutanecarbonyl)amino]-5-[3-[[5-(difluoromethoxy)-2-methylpyrazol-3-yl]amino]-1,2,4-triazol-4-yl]-N-[[(1R,2R)-2-fluorocyclopropyl]methyl]-4,5,6,7-tetrahydro-1-benzothiophene-3-carboxamide]: in assay [2], the IC50 is less than 1000 nM.

`Cn1nc(OC(F)F)cc1Nc1nncn1[C@H]1CCc2sc(NC(=O)C3CC(F)(F)C3)c(C(=O)N[C@H]3C[C@H](F)C3)c2C1` [Example 492, (5S)-2-[(3,3-difluorocyclobutanecarbonyl)amino]-5-[3-[[5-(difluoromethoxy)-2-methylpyrazol-3-yl]amino]-1,2,4-triazol-4-yl]-N-(trans-3-fluorocyclobutyl)-4,5,6,7-tetrahydro-1-benzothiophene-3-carboxamide]: the IC50 in assay [2] is less than 1000 nM.

As to `Cn1nc(C(F)F)cc1Nc1nncn1[C@H]1CCc2sc(NC(=O)C3CC3)c(C(=O)N[C@@H]3CC34CC4)c2C1` [Example 496, (5S)-2-(cyclopropanecarbonylamino)-5-[3-[[5-(difluoromethyl)-2-methyl-pyrazol-3-yl]amino]-1,2,4-triazol-4-yl]-N-[(2R)-spiro[2.2]pentan-2-yl]-4,5,6,7-tetrahydrobenzothiophene-3-carboxamide], the IC50 in assay [2] is less than 1000 nM.

On to `Cc1cc(Nc2nncn2[C@H]2CCc3sc(NC(=O)C4CC45CC5)c(C(=O)NCC4CC4)c3C2)n(C)n1` (stereo partly drawn) [Example 499, (5S)—N-(cyclopropylmethyl)-5-[3-[(2,5-dimethylpyrazol-3-yl)amino]-1,2,4-triazol-4-yl]-2-(spiro[2.2]pentane-2-carbonylamino)-4,5,6,7-tetrahydrobenzothiophene-3-carboxamide], for which the IC50 in assay [2] is less than 1000 nM.

One may read the IC50 as the concentration that inhibits the measured activity by half.
